{"source": "patent US8563578B2", "about": "“Antitumor properties of NO modified protease inhibitors” (Onconox APS, priority 2008, dated 2013)", "key": {"CD1 mice": {"test_system": "CD1 mice", "conditions": "CD1, mouse, in vivo, ip", "experimental": "To define the acute toxicity of Sag and Sag NO2, the test compound was administered i.p. to CD1 mice at the single doses of 250, 500, 1000 and 1500 mg/Kg. Control groups were treated i.p. with vehicle (pure DMSO; 100 μl/mouse). Each group consisted of 10 mice. Mortality was evaluated every hour for the first 4 hours and then every 10 hours until 14 days after dosing."}, "B16 mouse melanoma": {"test_system": "B16 mouse melanoma", "test": "Cell viability, B16 cells", "format": "cell-based", "conditions": "read-out: reduction of cell viability", "description": "Rat glioma C6 and human glioblastoma U251 cell lines were a kind gift from Dr. Pedro Tranque (Universidad de Castilla-La Mancha, Albacete, Spain), murine melanoma B 16, and human adenocarcinoma HeLa, were a kind gift from Dr. Sinisa Radulovic (Institute for Oncology and Radiology of Serbia, Belgrade, Serbia) while mouse fibrosarcoma L929 was obtained from the European Collection of Animal Cell Cultures (Salisbury, UK). Human breast HCC1419 and prostate PC-3 cells were purchased from LGC Promochem srl (Venezia, Italy). Primary mouse fibroblasts and rat astrocytes were prepared as described (Mijatovic et al. 2004). […]\nReduction of 3-4,5-dimethylthiazol-2-yl)-2,5-diphenyltetrazolium bromide (MTT) to formazan depends on mitochondrial activity of cultured cells, absorption of crystal violet dye correlates with the number of adherent, live cells, while the release of cytosolic lactate dehydrogenase (LDH) indicates the disruption of membrane integrity caracteristic for necrotic cells. […] Mitohondrial-dependent production of formazan and intensity of absorbed crystal violet by adherent cells were assessed by an automated microplate reader at 570 nm, while the pyruvate-mediated conversion of 2,4-dinitrophenylhydrazine into visible hydrazone precipitate in LDH assay was measured at 492 nm. […]\nFIG. 2. […] Cell viability was then evaluated by CV test. […]"}, "B16 cells": {"test_system": "B16 cells", "test": "Cyclin D3 and p53 expression (cELISA, immunocytochemistry, Western blot), B16", "format": "cell-based, mouse", "conditions": "18.8 μM, 24 h (Western blot 4 h)", "description": "A slightly modified method for cell-based ELISA (cELISA) by Versteeg (Versteed et al., 2000) was used to measure the expression of galactocerebroside, glial fibrilar acidic protein (GFAP), myelin basic protein (MBP), cyclin D3, p53 and p-AKT. Briefly, at the end of cultivation period cells were fixed in 4% paraformaldehyde, endogenous peroxydase was quenched with 1% H2O2 in PBS containing 0.1% Triton X-100 (PBST), and unspecific binding of antibodies blocked with PBST solution containing 10% FCS. […] The absorbance at 450 nm was measured in an automated microplate reader 15 min after incubation with peroxydase substrate TMB and subsequently to addition of 0.1 M HCl. To facilitate comparison between treatments, the obtained absorbances were corrected for the cell number that was determined by crystal violet staining, as described in the original protocol.\nThe detection of expression of cyclin D3 and p53 expression was performed by the immunocytochemical procedure as previously described (Mijatovic et al, 2005). The cells were cultivated in glass chamber-slides (3×10^4 cells/well) and cyclin D3 and p53 expression were detected with specific antibodies against cyclin D3 (1:1000, Santa Cruz Biotechnology, Santa Cruz, Calif.) and p53 (1:500, Santa Cruz Biotechnology, Santa Cruz, Calif.). […]"}}, "note": "Where two headings read alike, the source gives them in different places.", "data": [{"smiles": "CC(C)(C)NC(=O)[C@@H]1C[C@@H]2CCCC[C@@H]2CN1C[C@@H](O)[C@H](Cc1ccccc1)NC(=O)[C@H](CC(N)=O)NC(=O)c1ccc2ccccc2n1", "note": "[Saq, Saquinavir, reference compound]", "values": [{"measurement": "lethality", "setting": "CD1 mice; 500 mg/kg, 24 h", "value": 20, "unit": "%"}, {"measurement": "lethality", "setting": "CD1 mice; 1000 mg/kg, 14 days", "value": 30, "unit": "%"}, {"measurement": "lethality", "setting": "CD1 mice; 14 days", "value": 100, "unit": "%"}, {"measurement": "time of death (mean±SD)", "setting": "CD1 mice; 14 days", "value": "65 ± 58", "unit": "h"}, {"measurement": "time of death (range)", "setting": "CD1 mice; 14 days", "value": "18 to 144", "unit": "h"}]}, {"smiles": "CC(C)(C)NC(=O)[C@@H]1C[C@@H]2CCCC[C@@H]2CN1C[C@@H](O[N+](=O)[O-])[C@H](Cc1ccccc1)NC(=O)[C@H](CC(N)=O)NC(=O)c1ccc2ccccc2n1", "note": "[Saq-NO2, nitric ester of Saquinavir]", "values": [{"measurement": "cytotoxicity at 18.8 µM", "setting": "B16 mouse melanoma", "value": "~70", "unit": "%"}, {"measurement": "cyclin D3 expression", "setting": "B16 cells", "value": "not considerably changed"}, {"measurement": "p53 expression", "setting": "B16 cells", "value": "much higher extent than Saq"}]}]}
